Data reported in the Deep4Chem optical property database.
One block for each compound: values may come before it.

Assay: solvent given as SMILES

fluorescence lifetime (in C1CCOC1): 3.42 ns
SMILES: COc1cc2c(cc1-c1ccsc1)Cc1c3c(c4c(c1-2)-c1cc(OC)c(-c2ccsc2)cc1C4)C(=O)N(CCC(C)C)C3=O

fluorescence lifetime (in ClCCl): 8.9 ns
SMILES: CCCCNc1nc(/C=C/c2ccccc2)[n+]([O-])c2c1CCCC2

SMILES: CCCCCCCCCCOc1ccc(C#Cc2ccc(C#Cc3ccc(OCCCCCCCCCC)c(OCCCCCCCCCC)c3)c3nc4c5ccccc5c5ccccc5c4nc23)cc1OCCCCCCCCCC
fluorescence lifetime (in C1CCOC1): 8.24 ns
fluorescence lifetime (in Cc1ccccc1): 7.1 ns
fluorescence lifetime (in ClCCl): 8.66 ns

SMILES: Cc1ccc2c(c1)C1(c3ccccc3-c3ccccc31)c1cc(C)ccc1N2c1ccc(-c2ncccn2)cc1
fluorescence lifetime (in O=P(c1ccccc1)(c1ccccc1)c1ccc2oc3ccc(P(=O)(c4ccccc4)c4ccccc4)cc3c2c1): 13 ns

SMILES: CC(=O)[B-]1(C(C)=O)OC(C)=CC(c2ccc3ccccc3c2)=[O+]1
fluorescence lifetime (in CC#N): 13.6 ns
fluorescence lifetime (in ClC(Cl)(Cl)Cl): 1.6 ns

SMILES: c1cc2c3c(c1)-c1cccc4cccc(c14)B3c1cccc3cccc-2c13
fluorescence lifetime (in Cc1ccccc1): 6.31 ns

fluorescence lifetime (in c1cc(-c2cccc(-n3c4ccccc4c4ccccc43)c2)cc(-n2c3ccccc3c3ccccc32)c1): 54 ns
SMILES: CC(C)c1cc(C(C)C)c(B2c3cc(N4c5ccccc5Oc5ccccc54)ccc3N(c3ccccc3)c3ccc(N4c5ccccc5Oc5ccccc54)cc32)c(C(C)C)c1

fluorescence lifetime (in C1CCOC1): 4.42 ns
SMILES: COc1ccc(-c2cc3c(cc2OC)-c2c(c4c(c5c2-c2cc(OC)c(-c6ccc(OC)cc6)cc2C5)C(=O)N(CCC(C)C)C4=O)C3)cc1

fluorescence lifetime (in CCCCC): 0.65 ns
fluorescence lifetime (in CCCCCC): 0.62 ns
fluorescence lifetime (in CCCCCCC): 0.61 ns
fluorescence lifetime (in CCCCCCCC): 0.64 ns
fluorescence lifetime (in CCCCCCCCC): 0.62 ns
fluorescence lifetime (in CCCCCCCCCC): 0.64 ns
fluorescence lifetime (in CCCCCCCCCCCC): 0.64 ns
fluorescence lifetime (in CCCCCCCCCCCCC): 0.65 ns
fluorescence lifetime (in CCCCCCCCCCCCCCC): 0.64 ns
fluorescence lifetime (in CCCCCCCCCCCCCCCC): 0.63 ns
fluorescence lifetime (in CCCCCCCCCCO): 0.64 ns
fluorescence lifetime (in CCCCCCCCCO): 0.64 ns
fluorescence lifetime (in CCCCCCCCO): 0.63 ns
fluorescence lifetime (in CCCCCCCO): 0.64 ns
fluorescence lifetime (in CCCCCCO): 0.64 ns
fluorescence lifetime (in CCCCCO): 0.65 ns
fluorescence lifetime (in CCCCO): 0.64 ns
fluorescence lifetime (in CCCO): 0.65 ns
fluorescence lifetime (in CCO): 0.67 ns
fluorescence lifetime (in CO): 0.67 ns
SMILES: CCC1(CC)c2cc(-c3ccc(C(C)(C)C)cc3)ccc2-c2ccc(-c3ccc4c(c3)C(CC)(CC)c3cc(-c5ccc6c(c5)C(CC)(CC)c5cc(-c7ccc(C(C)(C)C)cc7)ccc5-6)ccc3-4)cc21

fluorescence lifetime (in C1CCCCC1): 0.6 ns
fluorescence lifetime (in CC#N): 0.6 ns
fluorescence lifetime (in O): 1.13 ns
SMILES: CNc1ccc(/C=C/C#N)cc1

SMILES: CCN(CC)c1ccc2cc(/C=C/C(=C(C#N)C#N)c3ccc4c(c3)c3ccccc3n4CC)c(=O)oc2c1
fluorescence lifetime (in CC(C)=O): 4.49 ns
fluorescence lifetime (in CCOC(C)=O): 3.49 ns
fluorescence lifetime (in CN(C)C=O): 4.81 ns
fluorescence lifetime (in CS(C)=O): 4.66 ns
fluorescence lifetime (in Cc1ccccc1): 1.15 ns
fluorescence lifetime (in ClCCl): 3.32 ns

fluorescence lifetime (in O): 2 ns
SMILES: CN(C)c1ccc2cc3ccc(N(C)C)cc3nc2c1

SMILES: CC(C)(C)c1ccc2c(c1)[nH]c1c3[nH]c4cc(C(C)(C)C)ccc4c3c3nsnc3c21
fluorescence lifetime (in CN(C)C=O): 2.29 ns
fluorescence lifetime (in Cc1ccccc1): 1.5 ns
fluorescence lifetime (in ClCCl): 2.61 ns

fluorescence lifetime (in C1CCOC1): 0.42 ns
SMILES: Cc1cc(C)c(C2=C(c3c(C)sc(-c4ccc(-c5nc(-c6ccccc6)c(-c6ccccc6)[nH]5)cc4)c3C)C(F)(F)C(F)(F)C2(F)F)s1

fluorescence lifetime (in CCO): 3 ns
fluorescence lifetime (in ClCCl): 3.8 ns
SMILES: CCN(CC)c1ccc2cc(C#N)/c(=N\C(=O)c3ccc(F)cc3)oc2c1

fluorescence lifetime (in C1CCOC1): 15.3 ns
fluorescence lifetime (in CC#N): 8.6 ns
fluorescence lifetime (in CCCCCC): 22.5 ns
SMILES: CC1=N/C(=C\c2cccc(N(C)C)c2)C(=O)N1C

fluorescence lifetime (in ClCCl): 1.33 ns
SMILES: COc1ccc2c(c1)CCC1=C(C#Cc3cc4ccccc4c4ccccc34)O[B-](F)(F)[O+]=C12

fluorescence lifetime (in ClCCl): 3.37 ns
SMILES: COC(=O)c1ccc(Oc2ccc3c4c(cccc24)C(=O)N(c2c(C(C)C)cccc2C(C)C)C3=O)cc1

SMILES: O=P1(c2ccccc2)c2ccc(N3c4ccccc4Sc4ccccc43)cc2-c2cc(N3c4ccccc4Sc4ccccc43)ccc21
fluorescence lifetime (in c1ccc2c(c1)c1ccccc1n2-c1ccc(-c2ccc(-n3c4ccccc4c4ccccc43)cc2)cc1): 26 ns

fluorescence lifetime (in CC1CCCCC1): 3.6 ns
SMILES: CC(C)(C)c1ccc2cc3c4cccc5cccc(c6cc(C(C)(C)C)cc(c2c1)c63)c54

fluorescence lifetime (in CCO): 2.1 ns
fluorescence lifetime (in ClCCl): 6.2 ns
SMILES: Clc1ncc(-c2c3ccccc3c(-c3cnc(Cl)nc3)c3ccccc23)cn1

fluorescence lifetime (in CC#N): 4.4 ns
SMILES: Cc1ccc(-n2c(C)ccc2C)cc1

SMILES: c1ccc(Cn2c3sccc3c3c4nsnc4c4c5ccsc5n(Cc5ccccc5)c4c32)cc1
fluorescence lifetime (in Cc1ccccc1): 13.5 ns
fluorescence lifetime (in ClCCl): 16.2 ns

fluorescence lifetime (in ClCCl): 10.8 ns
SMILES: COc1ccc(-c2c3cc4cc(C)sc4cc3c(C#Cc3ccccc3)c3cc4cc(C)sc4cc23)cc1

fluorescence lifetime (in CCCO): 6.3 ns
SMILES: CCCCCCn1c2cc(C(=O)OCC)ccc2c2c1c1ccc(C(=O)OCC)cc1n2CCCCCC

SMILES: c1ccc(-c2ccc3c(c2)c2cc(-c4ccccc4)ccc2n3-c2ccc3c(c2)c2cc(-n4c5ccc(-c6ccccc6)cc5c5cc(-c6ccccc6)ccc54)ccc2n3-c2ccc(-c3nc(-c4ccccc4)nc(-c4ccccc4)n3)cc2)cc1
fluorescence lifetime (in Cc1ccccc1): 6.3 ns

SMILES: N#Cc1cc(N2c3ccccc3Oc3ccccc32)cc(N2c3ccccc3Oc3ccccc32)c1
fluorescence lifetime (in Cc1ccccc1): 26.1 ns

fluorescence lifetime (in ClCCl): 1.01 ns
SMILES: CN(C)c1ccc(-c2cc3c(s2)c(C(=O)c2ccccc2)cc(=O)n3Cc2ccccc2)cc1

fluorescence lifetime (in CC#N): 0.0089 ns
SMILES: Oc1ccccc1/C=N/c1ccccc1/N=C/c1ccccc1O

fluorescence lifetime (in C1CCCCC1): 6.6 ns
fluorescence lifetime (in CC#N): 6.3 ns
SMILES: C=Cc1ccc(OC)cc1

fluorescence lifetime (in ClC(Cl)Cl): 0.62 ns
fluorescence lifetime (in ClCCl): 0.53 ns
SMILES: COc1cc2cc(OC)c(-c3ccc([N+](=O)[O-])cc3)cc2cc1-c1ccc([N+](=O)[O-])cc1

SMILES: CCN(CC)c1ccc(OC)c(C=O)c1
fluorescence lifetime (in CC#N): 12.5 ns
fluorescence lifetime (in CC(C)O): 0.96 ns
fluorescence lifetime (in CCCCCC): 7.78 ns
fluorescence lifetime (in CCOC(C)=O): 12.5 ns
fluorescence lifetime (in CS(C)=O): 20.9 ns
fluorescence lifetime (in Cc1ccccc1): 12.5 ns
fluorescence lifetime (in ClCCl): 17 ns

fluorescence lifetime (in CC#N): 2.1 ns
SMILES: Cc1ccc(-[c+]2c3ccccc3oc3ccccc32)cc1

SMILES: C(=C\N1CCCC1)/c1nc2ccccc2nc1-c1ccccc1
fluorescence lifetime (in C1CCCCC1): 2.3 ns
fluorescence lifetime (in C1CCOC1): 8.42 ns
fluorescence lifetime (in CC#N): 5.28 ns
fluorescence lifetime (in CC(C)=O): 6.88 ns
fluorescence lifetime (in CCO): 0.49 ns
fluorescence lifetime (in CO): 0.15 ns
fluorescence lifetime (in CS(C)=O): 2.97 ns
fluorescence lifetime (in Cc1ccccc1): 6.52 ns
fluorescence lifetime (in ClCCl): 10.2 ns

fluorescence lifetime (in ClC(Cl)Cl): 8.97 ns
SMILES: CCCCCCN1C(=O)c2cccc3cc(/N=C\c4ccc5c(c4)c4ccccc4n5CC)cc(c23)C1=O

fluorescence lifetime (in CC1CCCCC1): 0.22 ns
fluorescence lifetime (in CC#N): 0.67 ns
fluorescence lifetime (in CO): 0.25 ns
SMILES: CCN(CC)c1ccc(-c2nc3cc(C(NC(=O)OC(C)(C)C)C(=O)OC)ccc3o2)c(O)c1 (stereo not given)

SMILES: COC(=O)C(Cc1ccc2oc(-c3ccc(Nc4ccccc4)cc3)nc2c1)NC(=O)OC(C)(C)C (stereo not given)
fluorescence lifetime (in C1CCCCC1): 1.23 ns
fluorescence lifetime (in C1CCOC1): 2.68 ns
fluorescence lifetime (in C1COCCO1): 1.83 ns
fluorescence lifetime (in CC1CCCO1): 2.75 ns
fluorescence lifetime (in CC1COC(=O)O1): 1.98 ns
fluorescence lifetime (in CC#N): 2.26 ns
fluorescence lifetime (in CC(C)=O): 2.96 ns
fluorescence lifetime (in CC(C)CC(C)(C)C): 1.01 ns
fluorescence lifetime (in CC(C)CO): 2.23 ns
fluorescence lifetime (in CC(C)O): 2.43 ns
fluorescence lifetime (in CC(C)OC(C)C): 2.48 ns
fluorescence lifetime (in CC(O)CO): 0.54 ns
fluorescence lifetime (in CCC(C)CC): 1.03 ns
fluorescence lifetime (in CCCCC): 1.14 ns
fluorescence lifetime (in CCCCCC): 1.02 ns
fluorescence lifetime (in CCCCCCCCC): 1.06 ns
fluorescence lifetime (in CCCCCCCCCC): 1.09 ns
fluorescence lifetime (in CCCCCCCO): 2.23 ns
fluorescence lifetime (in CCCCCCO): 2.41 ns
fluorescence lifetime (in CCCCCO): 2.89 ns
fluorescence lifetime (in CCCCO): 2 ns
fluorescence lifetime (in CCO): 0.8 ns
fluorescence lifetime (in CCOC(C)=O): 2.46 ns
fluorescence lifetime (in CCOCC): 2.27 ns
fluorescence lifetime (in CN(C)C=O): 2.45 ns
fluorescence lifetime (in CO): 0.43 ns
fluorescence lifetime (in COCCOC): 0.9 ns
fluorescence lifetime (in CS(C)=O): 1.92 ns
fluorescence lifetime (in Cc1ccccc1): 1.36 ns
fluorescence lifetime (in Cc1ccccc1C): 1.35 ns
fluorescence lifetime (in ClC(Cl)Cl): 2.26 ns
fluorescence lifetime (in ClCCl): 3.1 ns
fluorescence lifetime (in NC=O): 1.7 ns
fluorescence lifetime (in OC1CCCCC1): 2.23 ns
fluorescence lifetime (in OCCO): 2.95 ns
fluorescence lifetime (in c1ccccc1): 1.42 ns

fluorescence lifetime (in ClC(Cl)Cl): 0.92 ns
SMILES: F[B-]1(F)OC(c2ccc(C(F)(F)F)cc2)=Cc2ccc3ccccc3[n+]21

fluorescence lifetime (in CC#N): 2.14 ns
SMILES: COc1ccc(C#Cc2ccccc2C#Cc2ccc(OC)cc2)cc1

SMILES: c1ccc(-c2ccc(-c3ccc(-n4c5ccccc5c5ccccc54)cc3)c3nsnc23)cc1
fluorescence lifetime (in C1CCOC1): 7.52 ns
fluorescence lifetime (in CC(C)=O): 5.2 ns
fluorescence lifetime (in CCCCCC): 5.87 ns
fluorescence lifetime (in CCOCC): 7.2 ns

SMILES: Cc1cc(N(C)C)cc(C)c1/C=C/C=C/c1ccc(C#N)cc1
fluorescence lifetime (in C1CCOC1): 0.51 ns
fluorescence lifetime (in CC#N): 0.61 ns
fluorescence lifetime (in CCCCCC): 0.29 ns
fluorescence lifetime (in CCCCOCCCC): 0.38 ns
fluorescence lifetime (in CCO): 0.58 ns
fluorescence lifetime (in CCOCC): 0.49 ns

fluorescence lifetime (in ClCCl): 2.98 ns
SMILES: c1ccn(-c2ccc(-c3cc(-c4ccc(-n5cccc5)cc4)cc(-c4ccc(-n5cccc5)cc4)c3)cc2)c1

SMILES: N#CC(C#N)=C(/C=C/c1cc2c3c(c1)CCCN3CCC2)c1ccc2c3c(cccc13)CC2
fluorescence lifetime (in C1CCOC1): 5.6 ns
fluorescence lifetime (in CC#N): 2.62 ns
fluorescence lifetime (in CC(C)=O): 2.8 ns
fluorescence lifetime (in CCOC(C)=O): 5.46 ns
fluorescence lifetime (in CN(C)C=O): 2.67 ns
fluorescence lifetime (in CO): 1.63 ns
fluorescence lifetime (in Cc1ccccc1): 4.48 ns
fluorescence lifetime (in ClC(Cl)Cl): 6.68 ns

fluorescence lifetime (in ClCCl): 2.6 ns
SMILES: Cc1ccc(C2=Nc3cccc4[n+]3[B-](c3ccccc3)(N2)NC(c2ccc(C)cc2)=N4)cc1

fluorescence lifetime (in ClCCl): 1.52 ns
SMILES: CCCCC(CC)COc1ccc2nc(-c3ccc(-c4ccc(OC)cc4)s3)sc2c1 (stereo not given)

SMILES: CCCCCCCC(=O)Oc1ccc2c3cccc4c(OC(=O)CCCCCCC)ccc(c5cccc1c52)c43
fluorescence lifetime (in C1CCOC1): 4.35 ns
fluorescence lifetime (in Cc1ccccc1): 3.72 ns
fluorescence lifetime (in ClC(Cl)(Cl)Cl): 3.89 ns
fluorescence lifetime (in ClC(Cl)Cl): 4.16 ns
fluorescence lifetime (in ClCCl): 4.34 ns
fluorescence lifetime (in c1ccncc1): 3.88 ns
